Like-named read-outs stand apart in the source and are kept apart here.
Tests used:
[1] = format: in vivo
Description: The endpoint for the primary objective is the incidence of Dose Limiting Toxicities (DLTs) during the first cycle of treatment. Although the primary analysis estimates the MTD based on DLT rate, the final preferred dose determination utilizes additional data beyond cycle 1 DLT rate, including later cycle tolerability, PK, PD and anti-tumor activity.
Therefore, dose limiting hematologic toxicities occurring in cycle 2 were also factored into dose escalation decisions during the course of the study, using a non-binding sensitivity model. Table Ex2.4 summarizes the number of dose limiting toxicities during cycle 1 and dose limiting hematologic toxicities in cycle 2 across all the regimens evaluated in solid tumors.
This study utilizes a Bayesian logistic regression model (BLRM) to support dose escalation and estimate the MTD and/or determine the preferred dose for HDM201. The BLRM with escalation with overdose control (EWOC) enables incorporation of available prior information and updates the model parameters based upon new information about observed dose limiting toxicities (DLT) seen in the clinical study. During the course of the dose escalation for regimen 1A and 1B, DLT incidence has been used to update the model and support the decision for the next dose. When during the course of the study it became apparent that HDM201 induced bone marrow toxicity occurred predominantly during cycle 2, a non-binding sensitivity model including cycle 1 DLT and hematologic dose limiting AEs in cycle 2 (weighting all cytopenias equally) was used to guide dose escalation/RDE determinations. Additionally, decisions were at all times based on a synthesis of relevant data available from all dose levels evaluated in the study including low grade toxicities, PK, and PD data (when available) from evaluable patients.

[2] = format: in vivo, human
Protocol: Pharmacokinetic data have been evaluated throughout the course of the dose escalation. Two HDM201 drug variants have been evaluated during the course of the study (refer to the protocol for further details). […] Furthermore, an integrated analysis of all available HDM201 concentrations was conducted using a population approach. The PK of HDM201 was best described by a 1-compartment PK model with a delayed zero- and first-order absorption process, and a linear clearance. Body weight was identified as a statistically significant covariate on apparent central volume of distribution (Vc/F), in which Vc/F increased with increasing body weight.
To further support the preferred dose for HDM201, compartmental PK modeling was used to estimate the individual average concentration per cycle for the 9 patients treated at 120 mg on regimen 1B (FIG. 15). For the majority of patients (7 out of 9), the estimated average drug concentrations per cycle were near or above the most conservative average tumor stasis concentration of ˜41 ng/mL per cycle determined from PKPD modeling of preclinical data (human SJSA-1 xenograft rat model).
Compartmental population PK modeling of NVP-HDM201 was used to estimate the individual average plasma concentration for Cycle 1 and to allow comparison with preclinical average concentration for tumor stasis derived by PK/PD tumor growth modeling. […] The dashed line at concentration of ≈19 ng/mL represents average tumor stasis determined from PK/PD modeling of preclinical data from a liposarcoma (HSAX2655) patient-derived xenograft rat model.

[3] = tested on: p53 knock out Colon 26 clones; assay: p53 KO Colon26 model; format: in vivo, mouse
Protocol: p53 knock out Colon 26 Clones were grown in the presence of 1 μM HDM201 and screened for p53 expression by western blot, loading 40 μg total protein/sample, using an anti p53 antibody (Cell Signaling CST #2524). p53 negative clones were identified, grown without HDM201 for 4 days and then re-treated with 1 μM HDM201 for 24 hours, along with Colon26 parental cells, to monitor p53 pathway’ response. p53 and p21 changes were monitored by western blot and an 84 gene qPCR array was used to additionally confirm pathway activity (RT2 Profiler PCR Array p53 pathway, Cat No. 330231 PAMM-027ZA Qiagen). Select clones were also submitted for RNASeq analysis.
There was no additional benefit observed when the PD-1/PD-L1 axis was blocked (FIG. 30).

[4] = 1A (d 1 Q3 weeks) 12.5 mg (n = 1)
[5] = 1B (d 1, d 8 of 4 w cycle) 120 mg (n = 9)
[6] = 2A (2 weeks on/2 weeks off) 1 mg (n = 1)
[7] = 2C (1 week on/3 weeks off) 15 mg (n = 8)

COc1ncc(-c2nc3c(n2C(C)C)[C@H](c2ccc(Cl)cc2)N(c2cc(Cl)cn(C)c2=O)C3=O)c(OC)n1 [HDM201, (S)-5-(5-Chloro-1-methyl-2-oxo-1,2-dihydro-pyridin-3-yl)-6-(4-chloro-phenyl)-2-(2,4-dimethoxy-pyrimidin-5-yl)-1-isopropyl-5,6-dihydro-1H-pyrrolo[3,4-d]imidazol-4-one]
DLTs (cycle 1) ([1]; 1A 25 mg (n = 1)): 0
Hematologic dose limiting toxicities (cycle 2) ([1]; 1A 25 mg (n = 1)): 0
DLTs (cycle 1) ([1]; 1A 50 mg (n = 4)): 0
Hematologic dose limiting toxicities (cycle 2) ([1]; 1A 50 mg (n = 4)): 1
DLTs (cycle 1) ([1]; 1A 100 mg (n = 4)): 0
Hematologic dose limiting toxicities (cycle 2) ([1]; 1A 100 mg (n = 4)): 0
DLTs (cycle 1) ([1]; 1A 200 mg (n = 5)): 0
Hematologic dose limiting toxicities (cycle 2) ([1]; 1A 200 mg (n = 5)): 1
DLTs (cycle 1) ([1]; 1A 250 mg (n = 6)): 0
Hematologic dose limiting toxicities (cycle 2) ([1]; 1A 250 mg (n = 6)): 1
DLTs (cycle 1) ([1]; 1A 350 mg (n = 5)): 2
Hematologic dose limiting toxicities (cycle 2) ([1]; 1A 350 mg (n = 5)): 2
DLTs (cycle 1) [1, 4]: 0
Hematologic dose limiting toxicities (cycle 2) [1, 4]: 0
DLTs (cycle 1) ([1]; 1B 150 mg (n = 8)): 1
Hematologic dose limiting toxicities (cycle 2) ([1]; 1B 150 mg (n = 8)): 1
DLTs (cycle 1) ([1]; 1B 200 mg (n = 3)): 0
DLTs (cycle 1) [1, 5]: 0
Hematologic dose limiting toxicities (cycle 2) [1, 5]: 2
DLTs (cycle 1) ([1]; 2A 2 mg (n = 2)): 0
Hematologic dose limiting toxicities (cycle 2) ([1]; 2A 2 mg (n = 2)): 0
DLTs (cycle 1) ([1]; 2A 4 mg (n = 4)): 0
Hematologic dose limiting toxicities (cycle 2) ([1]; 2A 4 mg (n = 4)): 0
DLTs (cycle 1) ([1]; 2A 7.5 mg (n = 4)): 0
Hematologic dose limiting toxicities (cycle 2) ([1]; 2A 7.5 mg (n = 4)): 0
DLTs (cycle 1) ([1]; 2A 15 mg (n = 4)): 0
Hematologic dose limiting toxicities (cycle 2) ([1]; 2A 15 mg (n = 4)): 1
DLTs (cycle 1) ([1]; 2A 20 mg (n = 5)): 0
Hematologic dose limiting toxicities (cycle 2) ([1]; 2A 20 mg (n = 5)): 4
DLTs (cycle 1) [1, 6]: 0
Hematologic dose limiting toxicities (cycle 2) [1, 6]: 0
DLTs (cycle 1) ([1]; 2C 20 mg (n = 6)): 0
Hematologic dose limiting toxicities (cycle 2) ([1]; 2C 20 mg (n = 6)): 0
DLTs (cycle 1) ([1]; 2C 25 mg (n = 5)): 2
Hematologic dose limiting toxicities (cycle 2) ([1]; 2C 25 mg (n = 5)): 0
DLTs (cycle 1) [1, 7]: 0
Hematologic dose limiting toxicities (cycle 2) [1, 7]: 1
Median DLT rate, per protocol analysis ([1]; BLRM, regimen 1B 120 mg): 3.5%
Median DLT rate, sensitivity analysis ([1]; BLRM, regimen 1B 120 mg): 25.7%
RDE for patients with solid tumors ([1]; D1 and D8 of each 28 day cycle): 120 mg
DLTs (cycle 1), Total ([1]; regimen 1A, N = 26): 2
Hematologic dose limiting toxicities (cycle 2), Total ([1]; regimen 1A, N = 26): 5
dose up to which BLRM (cycle 1 DLT events) supported escalation ([1]; regimen 1B): up to 400 mg
events of prolonged neutropenia meeting DLT criteria ([1]; regimen 1B 150 mg, onset on day 22, lasting 18 days): One
DLTs (cycle 1), Total ([1]; regimen 1B, N = 20): 1
Hematologic dose limiting toxicities (cycle 2), Total ([1]; regimen 1B, N = 20): 3
DLTs (cycle 1), Total ([1]; regimen 2A, N = 20): 0
Hematologic dose limiting toxicities (cycle 2), Total ([1]; regimen 2A, N = 20): 5
DLTs (cycle 1), Total ([1]; regimen 2C, N = 19): 2
Hematologic dose limiting toxicities (cycle 2), Total ([1]; regimen 2C, N = 19): 1
Dose-limiting toxicities (type) ([1]; typically occurring during Cycle 2): neutropenia and thrombocytopenia
steady-state reached ([2]; daily dosing): ≤ 8 days
median time to reach maximum plasma concentrations (Tmax) ([2]; dose range 2 to 350 mg): 2 to 5.8 h
accumulation upon daily dosing ([2]; human, in vivo): limited accumulation
patients with estimated average drug concentration per cycle near or above ~41 ng/mL ([2]; regimen 1B 120 mg, compartmental PK modeling): 7 out of 9
tumor growth inhibition [3]: not able to inhibit tumor growth

Source: patent US20210363254A1, “PHARMACEUTICAL COMBINATIONS” (Novartis AG, priority 2018, published 2021)
